From patent publication US6664247B2, “Pyrazole compounds useful as protein kinase inhibitors” (Vertex Pharmaceuticals Incorporated, priority 2000, dated 2003)

Target: T1, Aurora-2 (Homo sapiens, UniProt O14965)
T1 sequence (O14965 1-403): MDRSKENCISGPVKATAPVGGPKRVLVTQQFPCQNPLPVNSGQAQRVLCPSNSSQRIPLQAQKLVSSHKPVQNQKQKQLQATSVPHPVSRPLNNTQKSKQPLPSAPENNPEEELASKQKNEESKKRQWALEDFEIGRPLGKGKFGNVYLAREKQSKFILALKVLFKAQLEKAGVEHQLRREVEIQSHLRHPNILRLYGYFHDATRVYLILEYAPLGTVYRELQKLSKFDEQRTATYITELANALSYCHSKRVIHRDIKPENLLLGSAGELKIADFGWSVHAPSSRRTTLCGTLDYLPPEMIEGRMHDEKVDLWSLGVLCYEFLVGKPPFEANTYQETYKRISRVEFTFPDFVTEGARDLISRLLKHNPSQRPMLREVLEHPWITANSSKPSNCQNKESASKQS
Experiment: Ki determination for the inhibition of Aurora-2 (coupled enzyme assay)
Format: biochemical
Conditions: 70 nM Aurora-2, 800 μM peptide LRRASLG, 30° C.
Experimental: To an assay stock buffer solution containing 0.1 M HEPES 7.5, 10 mM MgCl2, 1 mM DTT, 25 mM NaCl, 2.5 mM phosphoenolpyruvate, […], 30 mg/ml pyruvate kinase, 10 mg/ml lactate dehydrogenase, 40 mM ATP, and 800 μM peptide (LRRASLG, American Peptide, Sunnyvale, Calif.) was added a DMSO solution of a compound of the present invention to a final concentration of 30 μM. The resulting mixture was incubated at 30° C. for 10 min. The reaction was initiated by the addition of 10 μL of Aurora-2 stock solution to give a final concentration of 70 nM in the assay. […] The Ki values were determined from the rate data as a function of inhibitor concentration.

Cc1cc(Nc2cc(-c3ccccc3)nc(Nc3ccccc3)n2)n[nH]1 [IIIc-1, (5-Methyl-2H-pyrazol-3-yl)-(6-phenyl-2-phenylamino-pyrimidin-4-yl)-amine]
Ki: 100 to 1000 nM
